The record followed here is the supplement of paper PMC12076712.

Where only a bound is given, the exact number is not on record here.

One may read the pIC50 as the IC50 on a negative log10 scale, so that one unit is a factor of ten. Read a high pIC50 as a small IC50.

Assay in all cases: pIC50, kinobeads binding competition
In one test the target is UniProt Q00537. In outline:
(§1)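 pIC50 was obtained by fitting fold changes against vehicle to logistic dose-response curves with the R drc package, using biological duplicates. Kinobeads-bound proteins were digested and measured by TMT10 LC-MS/MS. Before this, either living Jurkat cells received nine compound concentrations (top 30 μM, 1:4 steps) for 60 min at 37 °C prior to lysis, or Jurkat lysate or a 1:1:1:1 HEK293/K-562/HepG2/placenta lysate mix received nine concentrations (top 30 μM, 1:5 steps) for 60 min at 4 °C.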

Another test concerns the target T1, MASTL (UniProt Q96GX5).
T1 sequence (whole entry): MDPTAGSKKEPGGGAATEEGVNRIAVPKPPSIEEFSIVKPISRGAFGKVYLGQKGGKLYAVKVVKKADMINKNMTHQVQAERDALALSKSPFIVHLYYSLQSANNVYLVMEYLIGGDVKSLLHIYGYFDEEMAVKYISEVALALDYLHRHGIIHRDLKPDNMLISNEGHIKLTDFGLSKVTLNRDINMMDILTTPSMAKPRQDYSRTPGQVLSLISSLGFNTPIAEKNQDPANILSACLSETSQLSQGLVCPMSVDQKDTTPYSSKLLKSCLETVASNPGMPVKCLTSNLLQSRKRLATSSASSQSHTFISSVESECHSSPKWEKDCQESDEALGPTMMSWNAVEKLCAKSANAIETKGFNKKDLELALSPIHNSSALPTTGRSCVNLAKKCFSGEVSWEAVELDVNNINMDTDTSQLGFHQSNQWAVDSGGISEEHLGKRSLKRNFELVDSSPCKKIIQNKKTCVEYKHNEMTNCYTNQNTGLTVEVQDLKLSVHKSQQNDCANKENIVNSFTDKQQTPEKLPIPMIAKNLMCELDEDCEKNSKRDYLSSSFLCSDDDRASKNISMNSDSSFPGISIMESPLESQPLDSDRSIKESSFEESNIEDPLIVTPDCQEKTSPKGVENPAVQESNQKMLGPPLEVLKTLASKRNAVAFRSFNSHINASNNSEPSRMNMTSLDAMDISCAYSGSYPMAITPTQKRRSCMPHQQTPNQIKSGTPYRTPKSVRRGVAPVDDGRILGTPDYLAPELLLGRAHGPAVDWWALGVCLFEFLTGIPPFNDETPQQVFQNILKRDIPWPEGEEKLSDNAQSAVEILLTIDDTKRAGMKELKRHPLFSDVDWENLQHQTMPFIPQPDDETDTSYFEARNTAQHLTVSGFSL
The essentials: as §1

The target in the next test is UniProt Q14004. The essentials: as §1
UniProt Q14004, sequence (Q14004 whole entry, looked up): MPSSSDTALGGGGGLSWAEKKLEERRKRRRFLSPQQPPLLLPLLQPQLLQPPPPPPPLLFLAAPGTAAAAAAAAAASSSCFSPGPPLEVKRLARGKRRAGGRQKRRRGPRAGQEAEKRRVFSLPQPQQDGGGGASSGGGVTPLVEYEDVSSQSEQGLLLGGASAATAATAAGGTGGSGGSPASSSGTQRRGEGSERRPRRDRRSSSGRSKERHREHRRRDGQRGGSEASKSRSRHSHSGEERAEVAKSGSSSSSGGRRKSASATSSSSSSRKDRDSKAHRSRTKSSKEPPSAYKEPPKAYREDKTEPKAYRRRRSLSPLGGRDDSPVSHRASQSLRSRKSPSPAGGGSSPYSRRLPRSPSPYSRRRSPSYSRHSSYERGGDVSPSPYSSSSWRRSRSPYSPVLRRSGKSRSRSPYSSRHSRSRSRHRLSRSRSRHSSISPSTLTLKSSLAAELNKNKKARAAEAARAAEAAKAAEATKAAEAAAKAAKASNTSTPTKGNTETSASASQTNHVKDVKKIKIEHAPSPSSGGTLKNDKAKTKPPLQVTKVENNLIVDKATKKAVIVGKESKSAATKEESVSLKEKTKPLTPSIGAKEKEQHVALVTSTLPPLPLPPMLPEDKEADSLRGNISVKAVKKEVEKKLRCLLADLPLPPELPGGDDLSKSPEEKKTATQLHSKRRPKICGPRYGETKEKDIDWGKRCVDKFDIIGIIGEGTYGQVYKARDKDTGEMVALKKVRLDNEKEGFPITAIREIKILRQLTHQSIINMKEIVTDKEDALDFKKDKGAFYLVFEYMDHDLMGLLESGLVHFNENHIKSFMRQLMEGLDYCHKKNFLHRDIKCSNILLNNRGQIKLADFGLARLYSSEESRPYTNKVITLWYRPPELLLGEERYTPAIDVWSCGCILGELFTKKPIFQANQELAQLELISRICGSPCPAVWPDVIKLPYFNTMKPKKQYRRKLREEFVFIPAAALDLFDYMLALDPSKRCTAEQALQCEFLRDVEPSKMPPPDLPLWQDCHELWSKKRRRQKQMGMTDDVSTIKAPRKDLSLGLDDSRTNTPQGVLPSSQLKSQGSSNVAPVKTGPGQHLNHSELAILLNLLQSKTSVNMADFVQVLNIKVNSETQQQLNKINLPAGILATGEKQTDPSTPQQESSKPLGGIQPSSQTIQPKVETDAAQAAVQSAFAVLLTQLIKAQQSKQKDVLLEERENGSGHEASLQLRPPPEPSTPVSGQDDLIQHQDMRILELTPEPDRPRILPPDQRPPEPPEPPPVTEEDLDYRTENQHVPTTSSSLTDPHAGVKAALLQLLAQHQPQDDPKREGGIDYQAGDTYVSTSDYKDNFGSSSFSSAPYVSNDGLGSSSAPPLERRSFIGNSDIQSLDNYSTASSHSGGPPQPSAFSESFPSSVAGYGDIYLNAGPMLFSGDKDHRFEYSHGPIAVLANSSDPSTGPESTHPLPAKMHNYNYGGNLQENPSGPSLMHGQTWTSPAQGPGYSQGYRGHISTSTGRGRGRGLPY
A further test concerns the target CSF1R (UniProt P07333). The conditions noted are these: cell material: Lysate mix. The essentials: as §1
The target of the next test is RPS6KA4 (UniProt O75676). In outline:
as §1

The target in the next test is T2, EPHA1 (UniProt P21709).
T2 sequence (whole entry): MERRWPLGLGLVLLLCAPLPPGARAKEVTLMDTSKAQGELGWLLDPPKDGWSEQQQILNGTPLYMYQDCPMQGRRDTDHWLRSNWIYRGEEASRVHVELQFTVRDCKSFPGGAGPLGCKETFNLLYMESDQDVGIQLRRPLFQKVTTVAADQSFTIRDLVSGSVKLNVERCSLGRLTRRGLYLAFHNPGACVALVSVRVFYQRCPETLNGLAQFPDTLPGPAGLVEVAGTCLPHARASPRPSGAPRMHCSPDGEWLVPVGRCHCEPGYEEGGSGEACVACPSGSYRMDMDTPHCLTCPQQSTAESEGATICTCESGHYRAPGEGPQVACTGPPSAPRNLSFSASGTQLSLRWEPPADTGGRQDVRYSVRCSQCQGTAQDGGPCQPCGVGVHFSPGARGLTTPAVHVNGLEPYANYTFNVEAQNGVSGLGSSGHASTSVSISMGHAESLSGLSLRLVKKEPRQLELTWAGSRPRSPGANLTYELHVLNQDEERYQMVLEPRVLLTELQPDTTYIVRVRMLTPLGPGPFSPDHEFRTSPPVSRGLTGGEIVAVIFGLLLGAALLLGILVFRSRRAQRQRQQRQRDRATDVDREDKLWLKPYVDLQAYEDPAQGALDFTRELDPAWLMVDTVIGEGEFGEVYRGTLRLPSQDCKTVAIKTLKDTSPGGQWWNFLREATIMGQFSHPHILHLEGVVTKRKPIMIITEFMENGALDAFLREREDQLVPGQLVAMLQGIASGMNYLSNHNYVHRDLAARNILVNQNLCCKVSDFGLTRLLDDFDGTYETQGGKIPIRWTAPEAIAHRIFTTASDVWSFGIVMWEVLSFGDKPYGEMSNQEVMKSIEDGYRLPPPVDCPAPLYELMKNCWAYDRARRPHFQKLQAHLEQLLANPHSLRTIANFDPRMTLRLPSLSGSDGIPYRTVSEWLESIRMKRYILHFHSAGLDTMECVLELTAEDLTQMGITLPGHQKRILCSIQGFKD
The conditions noted are these: cell material: Lysate mix. The essentials:
as §1

A further test concerns the target T3, ILK (UniProt Q13418).
T3 sequence (whole entry): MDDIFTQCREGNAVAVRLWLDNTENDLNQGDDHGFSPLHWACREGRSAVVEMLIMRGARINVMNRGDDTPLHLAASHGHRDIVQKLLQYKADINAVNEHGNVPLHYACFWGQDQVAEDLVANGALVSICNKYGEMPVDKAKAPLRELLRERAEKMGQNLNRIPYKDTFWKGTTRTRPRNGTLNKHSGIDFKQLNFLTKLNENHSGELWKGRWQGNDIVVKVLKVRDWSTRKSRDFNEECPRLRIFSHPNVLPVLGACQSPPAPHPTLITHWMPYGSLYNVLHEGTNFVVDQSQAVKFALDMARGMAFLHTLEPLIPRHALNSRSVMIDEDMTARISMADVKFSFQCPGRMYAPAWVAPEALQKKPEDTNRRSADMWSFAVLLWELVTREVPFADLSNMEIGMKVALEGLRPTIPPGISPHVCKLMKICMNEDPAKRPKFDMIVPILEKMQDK
The essentials: as §1

RPS6KA4, sequence (O75676 whole entry, looked up): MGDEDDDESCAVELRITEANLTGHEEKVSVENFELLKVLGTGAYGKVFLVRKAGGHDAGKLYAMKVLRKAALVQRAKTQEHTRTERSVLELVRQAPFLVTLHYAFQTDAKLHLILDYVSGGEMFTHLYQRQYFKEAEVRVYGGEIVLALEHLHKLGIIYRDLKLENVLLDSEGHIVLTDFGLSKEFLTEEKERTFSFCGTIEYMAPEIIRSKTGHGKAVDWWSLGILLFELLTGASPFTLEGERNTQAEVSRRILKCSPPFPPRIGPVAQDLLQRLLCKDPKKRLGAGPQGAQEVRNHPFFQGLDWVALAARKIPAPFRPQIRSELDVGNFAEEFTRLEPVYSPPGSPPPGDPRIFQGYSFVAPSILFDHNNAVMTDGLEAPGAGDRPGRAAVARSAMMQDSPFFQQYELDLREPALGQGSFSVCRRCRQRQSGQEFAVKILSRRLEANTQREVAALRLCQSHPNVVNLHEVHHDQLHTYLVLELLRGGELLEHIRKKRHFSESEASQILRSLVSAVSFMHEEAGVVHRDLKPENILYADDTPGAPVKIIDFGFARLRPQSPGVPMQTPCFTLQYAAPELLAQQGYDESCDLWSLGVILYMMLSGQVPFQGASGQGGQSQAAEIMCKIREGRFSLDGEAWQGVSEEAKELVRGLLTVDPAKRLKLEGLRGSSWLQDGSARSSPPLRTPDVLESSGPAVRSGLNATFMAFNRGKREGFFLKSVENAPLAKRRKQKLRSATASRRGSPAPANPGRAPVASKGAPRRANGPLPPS
UniProt Q00537, sequence (Q00537 whole entry, looked up): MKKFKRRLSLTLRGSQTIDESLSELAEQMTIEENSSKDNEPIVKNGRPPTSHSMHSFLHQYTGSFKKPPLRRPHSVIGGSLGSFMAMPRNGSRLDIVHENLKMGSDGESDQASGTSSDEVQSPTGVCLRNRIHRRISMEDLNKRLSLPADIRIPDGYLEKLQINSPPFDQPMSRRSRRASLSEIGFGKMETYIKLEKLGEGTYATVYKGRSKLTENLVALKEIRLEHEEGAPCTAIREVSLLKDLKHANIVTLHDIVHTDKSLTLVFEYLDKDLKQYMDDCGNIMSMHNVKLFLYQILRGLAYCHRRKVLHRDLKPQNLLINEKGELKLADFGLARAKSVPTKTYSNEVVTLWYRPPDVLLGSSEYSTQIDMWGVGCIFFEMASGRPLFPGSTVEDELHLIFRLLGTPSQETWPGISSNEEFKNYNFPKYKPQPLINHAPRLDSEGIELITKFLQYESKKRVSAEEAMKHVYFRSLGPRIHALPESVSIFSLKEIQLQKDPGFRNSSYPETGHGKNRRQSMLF
CSF1R, sequence (P07333 whole entry): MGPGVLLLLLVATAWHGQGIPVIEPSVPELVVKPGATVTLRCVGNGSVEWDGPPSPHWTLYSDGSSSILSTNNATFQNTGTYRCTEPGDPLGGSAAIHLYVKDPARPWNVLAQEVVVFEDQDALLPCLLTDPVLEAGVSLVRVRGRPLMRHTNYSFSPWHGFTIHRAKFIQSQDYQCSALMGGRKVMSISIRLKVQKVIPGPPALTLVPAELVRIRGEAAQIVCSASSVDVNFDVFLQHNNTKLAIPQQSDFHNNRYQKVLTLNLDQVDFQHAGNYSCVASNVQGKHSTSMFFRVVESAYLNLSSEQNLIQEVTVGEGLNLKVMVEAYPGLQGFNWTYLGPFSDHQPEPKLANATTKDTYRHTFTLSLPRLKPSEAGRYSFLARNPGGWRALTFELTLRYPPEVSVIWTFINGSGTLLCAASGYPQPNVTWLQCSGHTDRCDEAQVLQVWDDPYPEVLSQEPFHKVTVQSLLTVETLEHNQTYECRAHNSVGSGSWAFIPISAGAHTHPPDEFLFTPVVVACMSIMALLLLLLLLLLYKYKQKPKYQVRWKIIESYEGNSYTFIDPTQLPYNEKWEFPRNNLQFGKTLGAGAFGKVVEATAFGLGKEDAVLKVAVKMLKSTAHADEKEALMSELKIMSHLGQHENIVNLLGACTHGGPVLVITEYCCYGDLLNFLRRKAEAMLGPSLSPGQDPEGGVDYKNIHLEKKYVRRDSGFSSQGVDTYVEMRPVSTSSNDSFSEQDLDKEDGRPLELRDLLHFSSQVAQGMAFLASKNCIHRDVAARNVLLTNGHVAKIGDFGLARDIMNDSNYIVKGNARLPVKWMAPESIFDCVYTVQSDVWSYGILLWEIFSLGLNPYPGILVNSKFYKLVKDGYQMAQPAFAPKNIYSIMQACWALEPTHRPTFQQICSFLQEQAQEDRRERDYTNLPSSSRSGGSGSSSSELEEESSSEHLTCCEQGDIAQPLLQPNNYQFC

As to `Cc1cc(Nc2cc(C(=O)NCCNC(=O)OC3CC/C=C/CCC3)nc(N3CCN(Cc4ccc(S(=O)(=O)F)cc4)CC3)n2)n[nH]1` (stereo not given), the pIC50 at UniProt Q00537 (cell material: Lysate mix), at MASTL (cell material: Lysate mix), on UniProt Q14004 (cell material: Lysate mix), at CSF1R, at RPS6KA4 (cell material: Lysate mix) and on EPHA1 was less than 4.52 in each case. On ILK (cell material: Lysate mix), this molecule showed a pIC50 of less than 4.52.

Turning to `C#CCNC(=O)c1cc(Nc2cc(C3CC3)[nH]n2)nc(N2CCN(Cc3ccc(S(=O)(=O)F)cc3)CC2)n1`, the pIC50 on UniProt Q00537 (cell material: Jurkat cells) was 6.39; on UniProt Q00537 (cell material: Jurkat lysate) it was 5.11; at UniProt Q00537 (cell material: Lysate mix), 5.7; at MASTL (cell material: Jurkat cells), 6.15; at MASTL (cell material: Jurkat lysate), 6.03; at MASTL (cell material: Lysate mix), 6.74. Also, the pIC50 at UniProt Q14004 (cell material: Jurkat cells) was 6.19; on UniProt Q14004 (cell material: Jurkat lysate), less than 4.52; at CSF1R it was less than 4.52; at RPS6KA4 (cell material: Jurkat cells) it was 5.84; on RPS6KA4 (cell material: Jurkat lysate), 4.83; on RPS6KA4 (cell material: Lysate mix), 5.56. Also, the results for the pIC50 at EPHA1, at ILK (cell material: Jurkat cells) and on ILK (cell material: Jurkat lysate) were 4.66, 5.41 and less than 4.52, respectively.

Turning to `CCNC(=O)c1cc(Nc2cc(C3CC3)[nH]n2)nc(N2CCN(Cc3ccc(S(=O)(=O)F)cc3)CC2)n1`, the pIC50 was 5.52 at UniProt Q00537 (cell material: Lysate mix); 6.85 on MASTL (cell material: Lysate mix); less than 4.52 on CSF1R; 5.34 at RPS6KA4 (cell material: Lysate mix); less than 4.52 on ILK (cell material: Lysate mix).

As to `C#CCNC(=O)c1cc(Nc2cc(C)[nH]n2)nc(N2CCN(Cc3ccc(S(=O)(=O)F)cc3)CC2)n1`, the pIC50 on UniProt Q00537 (cell material: Lysate mix) is less than 4.52; at UniProt Q14004 (cell material: Lysate mix), less than 4.52; at RPS6KA4 (cell material: Lysate mix), 4.84; at EPHA1, less than 4.52; on ILK (cell material: Lysate mix), less than 4.52.

As for `O=C(NCCNC(=O)c1cc(Nc2cc(C3CC3)[nH]n2)nc(N2CCN(Cc3ccc(S(=O)(=O)F)cc3)CC2)n1)OC1CC/C=C/CCC1` (stereo not given), the pIC50 at UniProt Q00537 (cell material: Jurkat cells) is 5.68; on UniProt Q00537 (cell material: Jurkat lysate), less than 4.52; at UniProt Q00537 (cell material: Lysate mix), less than 4.52; at MASTL (cell material: Jurkat cells), 6.1; at UniProt Q14004 (cell material: Jurkat cells), 6.02; on UniProt Q14004 (cell material: Jurkat lysate), less than 4.52. The pIC50 on UniProt Q14004 (cell material: Lysate mix) was less than 4.52; on CSF1R, less than 4.52; at RPS6KA4 (cell material: Jurkat cells) it was 5.8; on RPS6KA4 (cell material: Jurkat lysate) it was less than 4.52; on RPS6KA4 (cell material: Lysate mix), less than 4.52; at EPHA1, less than 4.52. For the same molecule, the pIC50 on ILK (cell material: Jurkat cells), at ILK (cell material: Jurkat lysate) and at ILK (cell material: Lysate mix) was less than 4.52 in each case.

Regarding `CCNC(=O)c1cc(Nc2cc(C)[nH]n2)nc(N2CCN(Cc3ccc(S(=O)(=O)F)cc3)CC2)n1`, the pIC50 at UniProt Q14004 (cell material: Lysate mix), at CSF1R and at EPHA1 was less than 4.52 throughout.
